Tests used:
cerebral flow = experiment: Cerebral flow change by electromagnetic flowmetry, anesthetized dogs; format: in vivo; settings: endovenous, 5 mg/kg, variation over mean values before testing
Experimental: (§1) Both parameters have been measured by electromagnetic flowmetry (Narcomatic-Electromagnetic flowmeter) on 12 anesthetized dogs. The hemodynamic parameter average of animals before testing were pO2 =95.40±3.98; pCO2 =34.31.congruent.2.38 and pH-7.297±0.315 by endovenously administering the compounds of a 5 mg/kg dosis.

mean arterial pressure = experiment: Decrease in mean arterial pressure (hypotension), anesthetized rats, endovenous; format: in vivo; settings: for ED50: Rattus norvegicus, iv
Text: (§2) The decrease in arterial pressure (Parameter 2) and the effects on heart rate (Parameter 3) have been evaluated according to the usual conventional methods used in Cardiovascular Pharmacology.

[1] = tested on: cerebral vascular resistance; experiment: Cerebral vascular resistance determined simultaneously with cerebral and carotid flows, anesthetized dogs; format: in vivo; settings: endovenous, 5 mg/kg, variation over mean values before testing
Experimental: (§3) The measurements of cerebral and carotid flow changes (parameters 4 and 5) have been made using the most sophisticated methods. Both parameters have been measured by electromagnetic flowmetry (Narcomatic-Electromagnetic flowmeter) on 12 anesthetized dogs. The hemodynamic parameter average of animals before testing were pO2 =95.40±3.98; pCO2 =34.31.congruent.2.38 and pH-7.297±0.315 by endovenously administering the compounds of a 5 mg/kg dosis.
(§4) Simultaneously with the measuring of cerebral and carotid flows, the mean arterial pressure and cerebral vascular resistance (parameters 6,7) in each animal was determined. These parameters were measured according to the conventional method in Cardiovascular Pharmacology and the values were tabulated as the variation rate (Increase or Decrease) over mean values before testing.

arterial pressure = experiment: Mean arterial pressure determined simultaneously with cerebral and carotid flows, anesthetized dogs; format: in vivo; settings: endovenous, 5 mg/kg, variation over mean values before testing
Experimental: as §3, §4

in vivo = settings: mouse, iv
carotid flow = experiment: Carotid flow change by electromagnetic flowmetry, anesthetized dogs; format: in vivo; settings: endovenous, 5 mg/kg, variation over mean values before testing
Experimental: as §1

heart rate = experiment: Effect on heart rate (bradycardia), anesthetized rats, endovenous; format: in vivo; settings: for ED50: Rattus norvegicus, iv
Text: as §2

mice [2] = experiment: Antiarrhythmic activity, method of Ferrini et al, endovenous administration to mice; format: in vivo; settings: for ED50: Mus musculus, iv, read-out: Antiarrythmic activity ED50
Text: Antiarrhythmic activity (Parameter 1) has been determined according to the method of Ferrini et al (Arzn.-Forsch., 29 (II), 9a, 1947-77, 1979).

mice [3] = settings: endovenous

Row | SMILES | Cerebral flow Increase (cerebral flow) [%] | ED50 (mean arterial pressure) [mg/kg] | Cerebral vascular resistance Decrease [1] [%] | Arterial pressure Decrease (arterial pressure) [%] | LD50 (in vivo) [mg/kg] | Carotid flow Decrease (carotid flow) [%] | ED50 (heart rate) [mg/kg] | ED50 (mice [2]) [mg/kg] | Mean arterial pressure, Hypotension ED50 (mean arterial pressure) [mg/kg] | Heart rate, Bradycardia ED50 (heart rate) [mg/kg] | Acute toxicity LD50 (mice [3]) [mg/kg] | Antiarrythmic activity ED50 (mice [2]) [mg/kg]
1 | C=C(CN1CCCCC1)CN1CCN(C(c2ccccc2)c2ccccc2)CC1 [Compound 6, 1-Benzhydryl-4-(2-(1-piperidinylmethyl)-2-propenyl)piperazine] | 70.0 | 1.5 | 75.3 | 58.0 | 8.6 ± 0.54 | 22.0 | 1.7 | 4.3 | – | – | – | –
2 | O=C1NCC(CN2CCN(C(c3ccccc3)c3ccccc3)CC2)O1 (stereo not drawn) [Compound 15] | 38.5 | 1.2 | 60.3 | 45.5 | 40 ± 4.19 | 60.0 | 3 | 16.5 | – | – | – | –
3 | Cl.Cl.c1ccc(C(c2ccccc2)N2CCN(CC3CC3)CC2)cc1 [Compound 1, 1-Benzhydryl-4-cyclopropylmethyl-piperazine dihydrochloride] | 55.0 | 2.7 | 55.0 | 30.0 | 25.6 ± 4.39 | 68.0 | 3.4 | 4.2 | – | – | – | –
4 | CCOC(=O)C=CCN1CCN(C(c2ccccc2)c2ccccc2)CC1 [Compound 7] | 32.0 | 2.1 | 44.7 | 27.3 | 100 ± 6.27 | 13.0 | 3.8 | 23 | – | – | – | –
5 | O=C(CCCN1CCN(C(c2ccccc2)c2ccccc2)CC1)c1ccccc1 [Compound 11] | 81.0 | 0.43 | 74.0 | 50.0 | 21 ± 1.72 | 40.9 | 2.1 | 6.9 | – | – | – | –
6 | C=CCN1CCN(C(c2ccccc2)c2ccccc2)CC1 [Aligeron 2HCI, reference compound] | 64.0 | – | 61.0 | 36.0 | – | 21.3 | – | – | 1.3 | 4.8 | 38.5 ± 1.06 | 4.4
7 | c1ccc(C(c2ccccc2)N2CCN(CCCC3(c4ccccc4)OCCO3)CC2)cc1 [Compound 13] | 140.1 | 1.5 | 73.1 | 35.0 | 42.5 ± 3.05 | 25.7 | 2.6 | 4 | – | – | – | –
8 | C(=C\c1ccccc1)/CN1CCN(C(c2ccccc2)c2ccccc2)CC1 [Cinnarizine 2HCI, reference compound] | 76.7 | – | 68.0 | 43.0 | – | 62.8 | – | – | – | – | – | –
